Measurements from article PMC11852064 (Antibiotics, 2025).
Where two headings read alike, the source gives them in different places.

Tests used:
[1] = system: S. aureus; conditions: ref 14; cited from earlier work
[2] = Population pharmacokinetic analysis of multidose DAL in adult patients (NONMEM); type: in vivo, human
Source text: This prospective/retrospective study was approved by Liguria Territorial Ethics Committee (DALT DRUM Study, Registration number 82/2023—DB id 13014) and carried out from February 2023 to February 2024 at Ente Ospedaliero Ospedali Galliera, Genoa, Italy. Adult patients referred to the Department of Infectious Diseases with documented or suspected Gram-positive infection who failed primary antimicrobial therapy and were prescribed a multidose DAL regimen as a rescue treatment were deemed eligible for inclusion and after signing the informed consent they were enrolled in the study.
To avoid impacting patient lifestyle and routine clinical practice, a sparse sampling strategy was also adopted for outpatients needing blood tests at the convenience of the prescribing physician.
Pharmacokinetic data were analyzed according to a nonlinear mixed-effects modeling approach using NONMEM v7.5 with Pirana modeling workbench, whilst R, version 4.3.2, was used for data formatting and graphical and statistical summaries. No data transformation was applied to PK concentrations prior to the analysis.
From an initial model (one-compartment, first-order elimination with proportional error model), different possible combinations of structural and stochastic models, as well as the inter-individual variability (IIV) of PK parameters were assessed. The effect of several covariates, previously screened for their influence on the PK parameters of the drug under study, was then included in a stepwise manner with backward elimination in the final model. Continuous covariates (age, weight, height, serum albumin, creatinine, creatine clearance, PCR) were centered on their median value and their effect was evaluated by linear and non-linear relationships. Improvement between models was judged based on a decrease in objective function value (OFV) greater than 3.84 units (p < 0.05) using the FOCE-I estimation method, whilst an increase by more than 6.64 units (p < 0.01) upon removal was adopted during backward exclusion. Additionally, during the initial model-building process outliers were detected and excluded from the analysis based on visual examination of data points identified with conditional weighted residuals (CWRES) > 3. To evaluate the influence of outliers, a sensitivity analysis was conducted in which the updated popPK model was run with and without outliers. If a statistically significant change in OFV or in the estimation of key fixed-effects parameters was observed, outliers were considered influential in the modeling steps and commented out.
The predictive performance of the PK models was assessed by appropriateness of the relative standard error (RSE < 30%), graphically by means of classical key diagnostic plots, prediction-corrected visual predictive check (pcVPC), and by inspecting bootstrap results from 1000 resampled datasets. Finally, eta-shrinkage values were calculated to identify and quantify model overfitting.

[3] = elimination via combination of renal and nonrenal clearance; cited from earlier work
[4] = design: method as in earlier work; conditions: ref 40, 41; cited from earlier work
[5] = cited from earlier work
[6] = system: Staphylococcus aureus, Staphylococcus epidermidis, Enterococcus spp. vancomycin-sensitive (VSE), or vancomycin-resistant Van B biofilms; conditions: ref 37, 38; cited from earlier work
Source text: In some instances, TDM ...

[7] = cited from earlier work; remark: listed apart in the source
[8] = bootstrap, 1000 resampled datasets
[9] = final two-compartment popPK model, allometric body weight, 30 adult patients, CLcr > 30 mL/min

Substance	Former EUCAST clinical breakpoint of susceptibility (MIC) [1] [µg/mL]	CL, bootstrap median (CI 5-95%) [2, 8]	Q, bootstrap median (CI 5-95%) [2, 8]	V1, bootstrap median (CI 5-95%) [2, 8]	V2, bootstrap median (CI 5-95%) [2, 8]	Q, inter-compartmental clearance, estimate [2, 9] [L/h]	V1, central volume of distribution, estimate [2, 9] [L]	V2, peripheral volume of distribution, estimate [2, 9] [L]	CL, total body clearance, estimate ([2]; human, in vivo, iv, 1500 mg) [L/h]	Renal share of elimination (renal clearance) [3]	EUCAST/USCAST clinical breakpoint MIC [4] [µg/mL]	Free fraction of DAL in plasma ([5]; as reported on the label) [%]	Binding to plasma proteins ([5]; ref 5) [%]	Binding to plasma proteins ([5]; ref 28) [%]	Activity in vitro against established biofilms [6]	duration of sufficient tissue exposure [7] [weeks]
Dalbavancin [listing 1 of 2 here]	0.125	0.0272 (0.0251–0.0294) L/h	0.0223 (0.0175–0.02936) L/h	3.6 (3.4–3.8) L	6.5 (5.6–7.5) L	0.0225	3.6	6.4	0.0273	approximately 45%	0.25	7	93	93	potent activity	–
Dalbavancin [listing 2 of 2 here]	–	–	–	–	–	–	–	–	–	–	–	–	–	–	–	8
